From patent US11524966B1 (Valo Early Discovery, Inc., priority 2017, dated 2022)

Biological target: T1, USP25 (USP25-His6, Boston Biochem E-546) (Homo sapiens, UniProt Q9UHP3)
T1 construct: His6; purchased Boston Biochem E-546
T1 sequence (Q9UHP3 1-1055): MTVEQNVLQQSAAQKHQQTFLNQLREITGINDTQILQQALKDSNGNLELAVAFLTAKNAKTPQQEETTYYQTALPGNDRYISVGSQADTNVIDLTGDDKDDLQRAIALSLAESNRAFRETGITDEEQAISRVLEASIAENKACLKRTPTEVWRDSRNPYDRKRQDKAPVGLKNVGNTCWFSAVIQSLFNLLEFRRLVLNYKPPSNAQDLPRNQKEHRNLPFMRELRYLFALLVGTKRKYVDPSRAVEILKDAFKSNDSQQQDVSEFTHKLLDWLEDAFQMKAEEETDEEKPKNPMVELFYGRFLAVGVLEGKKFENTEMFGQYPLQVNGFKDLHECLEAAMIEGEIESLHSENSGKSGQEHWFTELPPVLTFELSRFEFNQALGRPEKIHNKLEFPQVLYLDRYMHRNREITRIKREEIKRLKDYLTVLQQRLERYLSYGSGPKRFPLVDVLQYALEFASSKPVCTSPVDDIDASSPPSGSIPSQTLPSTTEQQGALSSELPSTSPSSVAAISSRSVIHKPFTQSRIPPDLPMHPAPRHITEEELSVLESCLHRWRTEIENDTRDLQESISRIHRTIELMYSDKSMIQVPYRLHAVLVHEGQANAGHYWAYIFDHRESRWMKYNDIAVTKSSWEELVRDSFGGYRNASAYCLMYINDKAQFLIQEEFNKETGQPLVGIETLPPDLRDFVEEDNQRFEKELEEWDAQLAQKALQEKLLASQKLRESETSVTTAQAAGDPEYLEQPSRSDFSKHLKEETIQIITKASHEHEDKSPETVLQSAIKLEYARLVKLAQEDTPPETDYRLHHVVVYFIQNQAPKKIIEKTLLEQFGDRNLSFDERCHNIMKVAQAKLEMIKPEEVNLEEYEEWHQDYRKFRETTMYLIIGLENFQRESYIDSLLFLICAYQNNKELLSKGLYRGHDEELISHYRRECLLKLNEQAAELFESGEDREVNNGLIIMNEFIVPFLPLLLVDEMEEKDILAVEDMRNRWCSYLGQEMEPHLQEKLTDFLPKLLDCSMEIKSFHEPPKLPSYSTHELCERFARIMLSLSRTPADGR
Experiment: Ubiquitin-Rhodamine 110 Assay for USP25 Activity, Example A-2
Type: biochemical
Details: Ub-Rh110 assay, Example A-2; read-out: USP25 A-2 IC50 range
Method: The assay was performed in a final volume of 9 μL in assay buffer containing 20 mM Tris-HCl (pH 8.0, (1M Tris-HCl, pH 8.0 solution; Corning 46-031-CM)), 3 mM BME (2-Mercaptoethanol; Sigma 63689-25ML-F), 0.03% BGG (0.22 μM filtered, Sigma, G7516-25G), and 0.01% Triton X-100 (Sigma, T9284-10L). Nanoliter quantities of 10-point, 3-fold serial dilution in DMSO was pre-dispensed into 1536 assay plates (Corning, #3724BC) for a final test concentration of 25 μM to 1.3 nM, top to lowest dose, respectively. Enzyme USP25, construct USP25-His6, (Boston Biochem E-546). Concentration and incubation times were optimized for the maximal signal-to-background while maintaining initial velocity conditions at a fixed substrate concentration. The final concentration of the enzyme in the assay was 75 pM. Final substrate (Ub-Rh110; Ubiquitin-Rhodamine 110, R&D Systems #U-555) concentration was 25 nM with [Ub-Rh110]<<Km. 3 μL of 2× enzyme was added to assay plates (pre-stamped with compound) preincubated with […] for 30 minutes and then 3 μL of 2×Ub-Rh110 was added to assay plates. Plates were incubated for 45 minutes at room temperature before addition of 3 μL of stop solution (final concentration of 10 mM citric acid (Sigma, 251275-500G)). Fluorescence was read on the Envision (Excitation at 485 nm and Emission at 535 nm; Perkin Elmer) or on the PheraSTAR (Excitation at 485 nm and Emission at 535 nm; BMG Labtech).
IC50 values were determined by curve fitting of the standard 4 parameter logistic fitting algorithm included in the Activity Base software package: IDBS XE Designer Model 205. Data is fitted using the Levenburg Marquardt algorithm.

## Cc1ccc2c(N)c(C(=O)N[C@H]3COc4cc(N5CCNCC5)ccc4C3)sc2n1 (single isomer, unassigned) [Example 1-1]
  IC50: 200 to 2000 nM

## Cc1ccc2c(N)c(C(=O)N[C@@H]3COc4cc(N5CCNCC5)ccc4C3)sc2n1 (single isomer, unassigned) [Example 1-2]
  IC50: > 2000 nM

## Cc1ccc2c(N)c(C(=O)N[C@H]3COc4cc(N5CC6CCC(C5)N6)ccc4C3)sc2n1 (single isomer, unassigned) [Example 1-3]
  IC50: 1 to 50 nM

## Cc1ccc2c(N)c(C(=O)N[C@@H]3COc4cc(N5CC6CCC(C5)N6)ccc4C3)sc2n1 (single isomer, unassigned) [Example 1-4]
  IC50: > 2000 nM

## Cc1ccc2c(N)c(C(=O)N[C@H]3COc4cc(N5CC6CCCC(C5)N6)ccc4C3)sc2n1 (single isomer, unassigned) [Example 1-5]
  IC50: 1 to 50 nM

## Cc1ccc2c(N)c(C(=O)N[C@@H]3COc4cc(N5CC6CCCC(C5)N6)ccc4C3)sc2n1 (single isomer, unassigned) [Example 1-6]
  IC50: > 2000 nM

## Cc1ccc2c(N)c(C(=O)N[C@H]3COc4cc(N5CCN[C@H](C)[C@@H]5C)ccc4C3)sc2n1 (single isomer, unassigned) [Example 1-9]
  IC50: 200 to 2000 nM

## Cc1ccc2c(N)c(C(=O)N[C@@H]3COc4cc(N5CCN[C@H](C)[C@@H]5C)ccc4C3)sc2n1 (single isomer, unassigned) [Example 1-10]
  IC50: 200 to 2000 nM

## Cc1ccc2c(N)c(C(=O)N[C@H]3COc4cc(N5CCN[C@H](C)[C@H]5C)ccc4C3)sc2n1 (single isomer, unassigned) [Example 1-11]
  IC50: 50 to 200 nM

## Cc1ccc2c(N)c(C(=O)N[C@@H]3COc4cc(N5CCN[C@H](C)[C@H]5C)ccc4C3)sc2n1 (single isomer, unassigned) [Example 1-12]
  IC50: 1 to 50 nM

## Cc1ccc2c(N)c(C(=O)N[C@H]3COc4cc(N5CCN[C@@H](C)[C@@H]5C)ccc4C3)sc2n1 (single isomer, unassigned) [Example 1-13]
  IC50: 200 to 2000 nM

## Cc1ccc2c(N)c(C(=O)N[C@@H]3COc4cc(N5CCN[C@@H](C)[C@@H]5C)ccc4C3)sc2n1 (single isomer, unassigned) [Example 1-14]
  IC50: 200 to 2000 nM

## Cc1nc2sc(C(=O)N[C@H]3COc4cc(N5CCNCC5)ccc4C3)c(N)c2cc1F (single isomer, unassigned) [Example 1-15]
  IC50: 50 to 200 nM

## Cc1nc2sc(C(=O)N[C@@H]3COc4cc(N5CCNCC5)ccc4C3)c(N)c2cc1F (single isomer, unassigned) [Example 1-16]
  IC50: > 2000 nM

## Nc1c(C(=O)N[C@H]2COc3cc(N4CC5CCC(C4)N5)ccc3C2)sc2ncc(F)cc12 (single isomer, unassigned) [Example 1-17]
  IC50: 200 to 2000 nM

## Nc1c(C(=O)N[C@@H]2COc3cc(N4CC5CCC(C4)N5)ccc3C2)sc2ncc(F)cc12 (single isomer, unassigned) [Example 1-18]
  IC50: > 2000 nM

## Cc1cnc2c(N)c(C(=O)N[C@H]3COc4cc(N5CCNCC5)ccc4C3)sc2n1 (single isomer, unassigned) [Example 1-21]
  IC50: 200 to 2000 nM

## Cc1cnc2c(N)c(C(=O)N[C@@H]3COc4cc(N5CCNCC5)ccc4C3)sc2n1 (single isomer, unassigned) [Example 1-22]
  IC50: > 2000 nM

## CCn1ccc2cc(C(=O)N[C@@H]3COc4cc(N5CC6CCC(C5)N6)ccc4C3)cnc21 (single isomer, unassigned) [Example 1-27]
  IC50: > 2000 nM

## CCn1ccc2cc(C(=O)N[C@H]3COc4cc(N5CC6CCC(C5)N6)ccc4C3)cnc21 (single isomer, unassigned) [Example 1-28]
  IC50: 50 to 200 nM

## Cc1ccc2c(N)c(C(=O)N[C@@H]3COc4cc(N5CC6CCC(C5)N6)cc(F)c4C3)sc2n1 (single isomer, unassigned) [Example 1-30]
  IC50: > 2000 nM

## Cc1ccc2c(N)c(C(=O)N[C@H]3COc4cc(N5CCNCC5)c(OC(F)(F)F)cc4C3)sc2n1 (single isomer, unassigned) [Example 1-31]
  IC50: > 2000 nM

## Cc1ccc2c(N)c(C(=O)N[C@@H]3COc4cc(N5CCNCC5)c(OC(F)(F)F)cc4C3)sc2n1 (single isomer, unassigned) [Example 1-32]
  IC50: 200 to 2000 nM
